Active and inactive are the calls of the source. The calls are words filed in the database; no cut-off is given here.
Tests used:
RXF 393 = assay: Anticancer activity against human RXF 393 cells assessed as growth inhibition incubated for 48 hrs by SRB assay; format: functional
HCT-15 [1] = assay: Anticancer activity against human HCT-15 cells assessed as growth inhibition incubated for 48 hrs by SRB assay; format: functional
T47D = assay: Anticancer activity against human T47D cells assessed as lethality incubated for 48 hrs by SRB assay; format: functional; conditions: read-out: LC50 (the source's name)
CCRF-CEM = assay: Anticancer activity against human CCRF-CEM cells assessed as lethality incubated for 48 hrs by SRB assay; format: functional; conditions: read-out: LC50 (the source's name)
SF-539 = assay: Anticancer activity against human SF-539 cells assessed as lethality incubated for 48 hrs by SRB assay; format: functional; conditions: read-out: LC50 (the source's name)
NCI-H460 = assay: Anticancer activity against human NCI-H460 cells assessed as total growth inhibition incubated for 48 hrs by SRB assay; format: functional
SF-295 = assay: Anticancer activity against human SF-295 cells assessed as lethality incubated for 48 hrs by SRB assay; format: functional; conditions: read-out: LC50 (the source's name)
MDA-MB-231 = assay: Anticancer activity against human MDA-MB-231 cells assessed as total growth inhibition incubated for 48 hrs by SRB assay; format: functional
Hs-578T = assay: Anticancer activity against human Hs-578T cells assessed as total growth inhibition incubated for 48 hrs by SRB assay; format: functional
A549 = assay: Anticancer activity against human A549 cells assessed as total growth inhibition incubated for 48 hrs by SRB assay; format: functional
UACC-62 = assay: Anticancer activity against human UACC-62 cells assessed as growth inhibition incubated for 48 hrs by SRB assay; format: functional
RPMI-8226 [2] = assay: Anticancer activity against human RPMI-8226 cells assessed as growth inhibition incubated for 48 hrs by SRB assay; format: functional
[3] = Selectivity index, ratio of GI50 for human HaCaT cells to GI50 for human Jurkat cells; format: toxicity; conditions: HaCaT cells versus Jurkat cells, read-out: RatioGI50
OVCAR-8 = assay: Anticancer activity against human OVCAR-8 cells assessed as total growth inhibition incubated for 48 hrs by SRB assay; format: functional
SK-MEL-5 = assay: Anticancer activity against human SK-MEL-5 cells assessed as growth inhibition incubated for 48 hrs by SRB assay; format: functional
NCI-H322M = assay: Anticancer activity against human NCI-H322M cells assessed as total growth inhibition incubated for 48 hrs by SRB assay; format: functional
HCC 2998 = assay: Anticancer activity against human HCC 2998 cells assessed as growth inhibition incubated for 48 hrs by SRB assay; format: functional
SK-OV-3 = assay: Anticancer activity against human SK-OV-3 cells assessed as lethality incubated for 48 hrs by SRB assay; format: functional; conditions: read-out: LC50 (the source's name)
OVCAR-3 [4] = assay: Anticancer activity against human OVCAR-3 cells assessed as growth inhibition incubated for 48 hrs by SRB assay; format: functional
HT-29 = assay: Anticancer activity against human HT-29 cells assessed as total growth inhibition incubated for 48 hrs by SRB assay; format: functional
OVCAR-4 = assay: Anticancer activity against human OVCAR-4 cells assessed as total growth inhibition incubated for 48 hrs by SRB assay; format: functional
SK-MEL-28 = assay: Anticancer activity against human SK-MEL-28 cells assessed as total growth inhibition incubated for 48 hrs by SRB assay; format: functional
HCT-15 [5] = assay: Anticancer activity against human HCT-15 cells assessed as total growth inhibition incubated for 48 hrs by SRB assay; format: functional
SF-268 = assay: Anticancer activity against human SF-268 cells assessed as growth inhibition incubated for 48 hrs by SRB assay; format: functional
Jurkat = assay: Induction of morphological changes in human Jurkat cells assessed as chromatin fragmentation incubated for 24 hrs by Hoechst 33258 and propidium iodide staining based fluorescence microscopy; format: functional, cell-based
SW-620 = assay: Anticancer activity against human SW-620 cells assessed as total growth inhibition incubated for 48 hrs by SRB assay; format: functional
U-251 [6] = assay: Anticancer activity against human U-251 cells assessed as growth inhibition incubated for 48 hrs by SRB assay; format: functional
U-251 [7] = assay: Anticancer activity against human U-251 cells assessed as total growth inhibition incubated for 48 hrs by SRB assay; format: functional
MDA-MB-468 = assay: Anticancer activity against human MDA-MB-468 cells assessed as lethality incubated for 48 hrs by SRB assay; format: functional; conditions: read-out: LC50 (the source's name)
[8] = Cytotoxicity against human HaCaT cells assessed as cell growth inhibition incubated for 72 hrs by MTT assay; format: toxicity, cell-based
SN12C = assay: Anticancer activity against human SN12C cells assessed as growth inhibition incubated for 48 hrs by SRB assay; format: functional
BT-549 = assay: Anticancer activity against human BT-549 cells assessed as lethality incubated for 48 hrs by SRB assay; format: functional; conditions: read-out: LC50 (the source's name)
HL-60 [9] = assay: Anticancer activity against human HL-60 cells assessed as total growth inhibition incubated for 48 hrs by SRB assay; format: functional
DU-145 = assay: Anticancer activity against human DU-145 cells assessed as growth inhibition incubated for 48 hrs by SRB assay; format: functional
MOLT-4 [10] = assay: Anticancer activity against human MOLT-4 cells assessed as lethality incubated for 48 hrs by SRB assay; format: functional; conditions: read-out: LC50 (the source's name)
RPMI-8226 [11] = assay: Anticancer activity against human RPMI-8226 cells assessed as total growth inhibition incubated for 48 hrs by SRB assay; format: functional
HL-60 [12] = assay: Anticancer activity against human HL-60 cells assessed as growth inhibition incubated for 48 hrs by SRB assay; format: functional
HOP-62 = assay: Anticancer activity against human HOP-62 cells assessed as growth inhibition incubated for 48 hrs by SRB assay; format: functional
CAKI-1 = assay: Anticancer activity against human CAKI-1 cells assessed as growth inhibition incubated for 48 hrs by SRB assay; format: functional
UO-31 = assay: Anticancer activity against human UO-31 cells assessed as total growth inhibition incubated for 48 hrs by SRB assay; format: functional
HCT-116 = assay: Anticancer activity against human HCT-116 cells assessed as cell growth inhibition incubated for 72 hrs by MTT assay; format: functional
HCT-15 [13] = assay: Anticancer activity against human HCT-15 cells assessed as lethality incubated for 48 hrs by SRB assay; format: functional; conditions: read-out: LC50 (the source's name)
U-251 [14] = assay: Anticancer activity against human U-251 cells assessed as lethality incubated for 48 hrs by SRB assay; format: functional; conditions: read-out: LC50 (the source's name)
K562 = assay: Anticancer activity against human K562 cells assessed as growth inhibition incubated for 48 hrs by SRB assay; format: functional
SR = assay: Anticancer activity against human SR cells assessed as lethality incubated for 48 hrs by SRB assay; format: functional; conditions: read-out: LC50 (the source's name)
MDA-MB-435 = assay: Anticancer activity against human MDA-MB-435 cells assessed as total growth inhibition incubated for 48 hrs by SRB assay; format: functional
MOLT-4 [15] = assay: Anticancer activity against human MOLT-4 cells assessed as growth inhibition incubated for 48 hrs by SRB assay; format: functional
[16] = Selectivity index, ratio of GI50 for human HaCaT cells to GI50 for human HCT116-p53-null cells; format: toxicity; conditions: HaCaT cells versus HCT116-p53-null cells, read-out: RatioGI50
PC-3 = assay: Anticancer activity against human PC-3 cells assessed as growth inhibition incubated for 48 hrs by SRB assay; format: functional
OVCAR-3 [17] = assay: Anticancer activity against human OVCAR-3 cells assessed as lethality incubated for 48 hrs by SRB assay; format: functional; conditions: read-out: LC50 (the source's name)

O=C1CC(N2C(=O)/C(=C/C(Cl)=C/c3ccc([N+](=O)[O-])cc3)SC2=S)C(=O)N1c1ccc(O)cc1 (stereo not given) gave a GI50 (RXF 393) of 1.53 µM, a GI50 (HCT-15 [1]) of 0.472 µM and a CC50 (T47D) of over 100 µM. The CC50 (CCRF-CEM) was over 100 µM, the CC50 (SF-539) was 8.43 µM and the TGI (NCI-H460) was 6.75 µM. It also gave a CC50 (SF-295) of 5.54 µM, a TGI (MDA-MB-231) of 5.06 µM and a TGI (Hs-578T) of 12.6 µM. The TGI (A549) was 11.4 µM, the GI50 (UACC-62) was 1.67 µM and the GI50 (RPMI-8226 [2]) was 0.295 µM. The selectivity ratio [3] was 56.6, the TGI (OVCAR-8) was 14.2 µM and the GI50 (SK-MEL-5) was 1.92 µM. It also gave a TGI (NCI-H322M) of 6.67 µM, a GI50 (HCC 2998) of 1.48 µM and a CC50 (SK-OV-3) of 32 µM. It also gave a GI50 (OVCAR-3 [4]) of 0.604 µM, a TGI (HT-29) of 8.78 µM and a TGI (OVCAR-4) of 17.3 µM. It also gave a TGI (SK-MEL-28) of 4.2 µM, a TGI (HCT-15 [5]) of 1.95 µM and a GI50 (SF-268) of 2.43 µM. For the same compound, the Activity (Jurkat) was “Active”, the TGI (SW-620) was 2.28 µM and the GI50 (U-251 [6]) was 0.597 µM. The TGI (U-251 [7]) was 2.21 µM, the CC50 (MDA-MB-468) was over 100 µM and the GI50 at 72 h [8] was 73.6 µM. The GI50 (SN12C) was 1.6 µM, the CC50 (BT-549) was 8.72 µM and the TGI (HL-60 [9]) was 9.57 µM. It also gave a GI50 (DU-145) of 1.72 µM, a CC50 (MOLT-4 [10]) of over 100 µM and a TGI (RPMI-8226 [11]) of 4.36 µM. For the same compound, the GI50 (HL-60 [12]) was 2.44 µM, the GI50 (HOP-62) was 2.26 µM and the GI50 (CAKI-1) was 1.15 µM. For the same compound, the TGI (UO-31) was 2.79 µM, the GI50 (HCT-116) was 4.52 µM and the CC50 (HCT-15 [13]) was 6.09 µM. It also gave a CC50 (U-251 [14]) of 6.53 µM, a GI50 (K562) of 0.603 µM and a CC50 (SR) of over 100 µM. For the same compound, the TGI (MDA-MB-435) was 4.34 µM, the GI50 (MOLT-4 [15]) was 0.534 µM and the selectivity ratio [16] was 13. The GI50 (PC-3) was 0.906 µM and the CC50 (OVCAR-3 [17]) was 4.96 µM.
O=C1CC(N2C(=O)/C(=C/C(Cl)=C/c3ccc([N+](=O)[O-])cc3)SC2=S)C(=O)N1c1ccc(Cl)cc1 (stereo not given) gave a GI50 (RXF 393) of 1.26 µM, a GI50 (HCT-15 [1]) of 0.599 µM and a CC50 (T47D) of over 100 µM. The CC50 (CCRF-CEM) was over 100 µM, the CC50 (SF-539) was over 100 µM and the TGI (NCI-H460) was over 100 µM. It also gave a CC50 (SF-295) of 7.51 µM, a TGI (MDA-MB-231) of 47.8 µM and a TGI (Hs-578T) of over 100 µM. The TGI (A549) was over 100 µM, the GI50 (UACC-62) was 1.77 µM and the GI50 (RPMI-8226 [2]) was 0.303 µM. The selectivity ratio [3] was 29.4, the TGI (OVCAR-8) was over 100 µM and the GI50 (SK-MEL-5) was 1.95 µM. The TGI (NCI-H322M) was over 100 µM, the GI50 (HCC 2998) was 1.59 µM and the CC50 (SK-OV-3) was over 100 µM. It also gave a GI50 (OVCAR-3 [4]) of 0.721 µM, a TGI (HT-29) of 4.6 µM and a TGI (OVCAR-4) of over 100 µM. The TGI (SK-MEL-28) was 4.02 µM, the TGI (HCT-15 [5]) was 8.2 µM and the GI50 (SF-268) was 3.07 µM. For the same compound, the Activity (Jurkat) was “Active”, the TGI (SW-620) was 3.9 µM and the GI50 (U-251 [6]) was 0.477 µM. It also gave a TGI (U-251 [7]) of 2.47 µM, a CC50 (MDA-MB-468) of 7.22 µM and a GI50 at 72 h [8] of over 100 µM. For the same compound, the GI50 (SN12C) was 1.69 µM, the CC50 (BT-549) was 8 µM and the TGI (HL-60 [9]) was 8.86 µM. For the same compound, the GI50 (DU-145) was 2.09 µM, the CC50 (MOLT-4 [10]) was 62.6 µM and the TGI (RPMI-8226 [11]) was 0.979 µM. It also gave a GI50 (HL-60 [12]) of 1.45 µM, a GI50 (HOP-62) of 1.73 µM and a GI50 (CAKI-1) of 1.13 µM. For the same compound, the TGI (UO-31) was 3.3 µM, the GI50 (HCT-116) was 9.18 µM and the CC50 (HCT-15 [13]) was 77.4 µM. The CC50 (U-251 [14]) was 14.1 µM, the GI50 (K562) was 0.692 µM and the CC50 (SR) was 57.6 µM. The TGI (MDA-MB-435) was 3.39 µM, the GI50 (MOLT-4 [15]) was 0.596 µM and the selectivity ratio [16] was 10.7. For the same compound, the GI50 (PC-3) was 1.34 µM and the CC50 (OVCAR-3 [17]) was 8.89 µM.
